Earlier results as cited in patent US5229134A, “Pharmaceutical compositions” (Laboratories Smith Kline & French, priority 1989, dated 1993).

Conditions: plasma levels

For CN/C(=N/CCSCc1nc[nH]c1C)NC#N [cimetidine], the “therapeutically effective concentration in plasma” value is given as 0.5 mg/L.
